Measured values published in PubChem BioAssay (NCI).
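Dose response: 5 concentrations. Exposure: 48 h. Format: 96-well plates. Endpoint: linear interpolation; highest concentration if not reached. GI50 marks 50% less growth. TGI is the concentration that stops growth completely.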

Columns and labels:
Assay in all cases: DTP human tumour cell line panel, 48 h
OVCAR-5 ovarian = system: OVCAR-5 ovarian
MCF7 breast = system: MCF7 breast
MDA-MB-231 breast = system: MDA-MB-231 breast
HCT-15 colon = system: HCT-15 colon
UO-31 renal = system: UO-31 renal
SF-539 CNS = system: SF-539 CNS
T-47D breast = system: T-47D breast
LOX IMVI melanoma = system: LOX IMVI melanoma
DU-145 prostate = system: DU-145 prostate
PC-3 prostate = system: PC-3 prostate

O=C(/C=C/c1ccccc1Cl)c1ccc(O)cc1 showed a GI50 (OVCAR-5 ovarian) of 19.8 µM, a TGI (OVCAR-5 ovarian) of 37.4 µM and a GI50 (MCF7 breast) of 2.45 µM. It also gave a TGI (MCF7 breast) of 7.54 µM, a GI50 (MDA-MB-231 breast) of 13.6 µM and a TGI (MDA-MB-231 breast) of 31 µM. For the same molecule, the GI50 (HCT-15 colon) was 2.48 µM, the TGI (HCT-15 colon) was 11.1 µM and the GI50 (UO-31 renal) was 4.85 µM. The TGI (UO-31 renal) was 14 µM, the GI50 (SF-539 CNS) was 5.22 µM and the TGI (SF-539 CNS) was 12.2 µM. It also gave a GI50 (T-47D breast) of 6.38 µM, a TGI (T-47D breast) of 25.9 µM and a GI50 (LOX IMVI melanoma) of 3.09 µM. The TGI (LOX IMVI melanoma) was 10.3 µM, the GI50 (DU-145 prostate) was 4.16 µM and the TGI (DU-145 prostate) was 13.1 µM. The GI50 (PC-3 prostate) was 5.65 µM and the TGI (PC-3 prostate) was 26.5 µM.

For O=C(Nc1cccnc1)c1cccs1, the GI50 (OVCAR-5 ovarian) was 45.4 µM, the TGI (OVCAR-5 ovarian) was > 100 µM and the GI50 (MCF7 breast) was 1.67 µM. For the same molecule, the TGI (MCF7 breast) was > 100 µM, the GI50 (MDA-MB-231 breast) was 81.3 µM and the TGI (MDA-MB-231 breast) was > 100 µM. The GI50 (HCT-15 colon) was 0.658 µM, the TGI (HCT-15 colon) was > 100 µM and the GI50 (UO-31 renal) was > 100 µM. The TGI (UO-31 renal) was > 100 µM, the GI50 (SF-539 CNS) was 4.51 µM and the TGI (SF-539 CNS) was > 100 µM. The GI50 (T-47D breast) was > 100 µM, the TGI (T-47D breast) was > 100 µM and the GI50 (LOX IMVI melanoma) was > 100 µM. The TGI (LOX IMVI melanoma) was > 100 µM, the GI50 (DU-145 prostate) was 4.6 µM and the TGI (DU-145 prostate) was > 100 µM. The GI50 (PC-3 prostate) was > 100 µM and the TGI (PC-3 prostate) was > 100 µM.

For Cc1cc(NC(=O)NC(=O)c2ccccc2[N+](=O)[O-])ccc1Oc1ncc(Cl)cn1, the TGI (OVCAR-5 ovarian) was > 100 µM, the TGI (MCF7 breast) was > 100 µM and the TGI (MDA-MB-231 breast) was 26.9 µM. The TGI (HCT-15 colon) was > 100 µM, the TGI (UO-31 renal) was 75.6 µM and the TGI (SF-539 CNS) was 9.5 µM. The TGI (T-47D breast) was > 100 µM, the TGI (LOX IMVI melanoma) was > 100 µM and the TGI (DU-145 prostate) was > 100 µM. For the same molecule, the TGI (PC-3 prostate) was 94.5 µM.

Molecule CN(C)c1cc2c(cc1Sc1nc3c(N)nccc3n1CCNCC(C)(C)C)OCO2 has a GI50 (OVCAR-5 ovarian) of 1.12 µM, a TGI (OVCAR-5 ovarian) of 28.1 µM and a GI50 (MCF7 breast) of 0.311 µM. The TGI (MCF7 breast) was 17.9 µM, the GI50 (MDA-MB-231 breast) was 0.585 µM and the TGI (MDA-MB-231 breast) was 17.1 µM. It also gave a GI50 (HCT-15 colon) of 0.394 µM, a TGI (HCT-15 colon) of 14.5 µM and a GI50 (UO-31 renal) of 0.64 µM. The TGI (UO-31 renal) was 19 µM, the GI50 (SF-539 CNS) was 1.45 µM and the TGI (SF-539 CNS) was 16.3 µM. The GI50 (T-47D breast) was 0.533 µM, the TGI (T-47D breast) was 31.1 µM and the GI50 (LOX IMVI melanoma) was 0.417 µM. The TGI (LOX IMVI melanoma) was 4.41 µM, the GI50 (DU-145 prostate) was 0.732 µM and the TGI (DU-145 prostate) was 18.5 µM. It also gave a GI50 (PC-3 prostate) of 0.615 µM and a TGI (PC-3 prostate) of 28.8 µM.

In the case of Clc1ccc(-c2nc(-c3c[nH]c4ncccc34)cs2)cc1, the GI50 (OVCAR-5 ovarian) is reported as > 100 µM, the TGI (OVCAR-5 ovarian) is reported as > 100 µM and the GI50 (MCF7 breast) is reported as > 100 µM. The TGI (MCF7 breast) was > 100 µM, the GI50 (MDA-MB-231 breast) was > 100 µM and the TGI (MDA-MB-231 breast) was > 100 µM. For the same molecule, the GI50 (HCT-15 colon) was > 100 µM, the TGI (HCT-15 colon) was > 100 µM and the GI50 (UO-31 renal) was > 100 µM. For the same molecule, the TGI (UO-31 renal) was > 100 µM, the GI50 (SF-539 CNS) was 35.7 µM and the TGI (SF-539 CNS) was > 100 µM. For the same molecule, the GI50 (T-47D breast) was 9.41 µM, the TGI (T-47D breast) was > 100 µM and the GI50 (LOX IMVI melanoma) was > 100 µM. For the same molecule, the TGI (LOX IMVI melanoma) was > 100 µM, the GI50 (DU-145 prostate) was > 100 µM and the TGI (DU-145 prostate) was > 100 µM. For the same molecule, the GI50 (PC-3 prostate) was > 100 µM and the TGI (PC-3 prostate) was > 100 µM.

With Cc1oncc1C(=O)Nc1ccc(C(F)(F)F)cc1 the GI50 (OVCAR-5 ovarian) was > 100 µM, the TGI (OVCAR-5 ovarian) was > 100 µM and the GI50 (MCF7 breast) was > 100 µM. The TGI (MCF7 breast) was > 100 µM, the GI50 (MDA-MB-231 breast) was 25.9 µM and the TGI (MDA-MB-231 breast) was > 100 µM. The GI50 (HCT-15 colon) was 14.1 µM, the TGI (HCT-15 colon) was > 100 µM and the GI50 (UO-31 renal) was 12.6 µM. The TGI (UO-31 renal) was > 100 µM, the GI50 (SF-539 CNS) was 60.3 µM and the TGI (SF-539 CNS) was > 100 µM. The GI50 (T-47D breast) was 94 µM, the TGI (T-47D breast) was > 100 µM and the GI50 (LOX IMVI melanoma) was 19.1 µM. For the same molecule, the TGI (LOX IMVI melanoma) was > 100 µM, the GI50 (DU-145 prostate) was 56.1 µM and the TGI (DU-145 prostate) was > 100 µM. For the same molecule, the GI50 (PC-3 prostate) was 13.9 µM and the TGI (PC-3 prostate) was > 100 µM.

For O=C(O[C@H]1CN[C@H](C#Cc2cc3ncnc(Nc4ccc(Cc5ccccc5)cc4)c3s2)C1)N1CCOCC1, the GI50 (OVCAR-5 ovarian) was 9 µM, the TGI (OVCAR-5 ovarian) was > 25 µM and the GI50 (MCF7 breast) was 5.63 µM. For the same molecule, the TGI (MCF7 breast) was > 20.6 µM, the GI50 (MDA-MB-231 breast) was 4.56 µM and the TGI (MDA-MB-231 breast) was 14.2 µM. For the same molecule, the GI50 (HCT-15 colon) was 7.08 µM, the TGI (HCT-15 colon) was > 25 µM and the GI50 (UO-31 renal) was 3.36 µM. For the same molecule, the TGI (UO-31 renal) was > 25 µM, the GI50 (SF-539 CNS) was 4.42 µM and the TGI (SF-539 CNS) was 11.7 µM. The GI50 (T-47D breast) was 1.86 µM, the TGI (T-47D breast) was > 25 µM and the GI50 (LOX IMVI melanoma) was 4 µM. The TGI (LOX IMVI melanoma) was 8.03 µM, the GI50 (DU-145 prostate) was 4 µM and the TGI (DU-145 prostate) was 11 µM. The GI50 (PC-3 prostate) was 8.56 µM and the TGI (PC-3 prostate) was > 25 µM.
